These results are taken from article PMC6062138, “2,4-Diaminothieno[3,2-d]pyrimidines, a new class of anthelmintic with activity against adult and egg stages of whipworm” (PLoS Neglected Tropical Diseases, 2018).

Read-outs that look alike come from different tables or passages of the source. Where only a bound is given, the exact number is not on record here.

One data set has as its system T. trichiura. The settings on record: cited from earlier work; for Cure rate, T. trichiura infection: single dose; for Cure rate against whipworm: single doses as used in MDA, no reference given.
Data set [1] concerns ex vivo T. muris adults. The settings on record: read-out: EC50 T. muris paralysis assay; cited from earlier work.
The subject of data set [2] is C. elegans N2. Also on record: method as in PMID 29223747. The settings on record: read-out: EC50 C. elegans growth assay; cited from earlier work.
For data set [3], the system named is ex vivo T. muris adults. The data set can be described thus: T. muris ex vivo adult motility (paralysis) assay. More on the design: species or system Trichuris muris. The settings on record: for EC50: Trichuris muris; for Activity in hit confirmation and expansion motility screen: library material (DMSO solution), 100μM. The method, then:
T. muris worms were cultured using severe combined immune deficiency (SCID) mice, at the Biological Services Facility at the University of Manchester. Male and female mice were infected with 200 infective embryonated T. muris eggs via oral gavage. Thirty-five days later, the mice were sacrificed. Adult T. muris were obtained from the intestine as previously described. Worms were maintained in Roswell Park Memorial Institute (RPMI) 1640 media supplemented with penicillin (500 U/mL) and streptomycin (500 μg/mL) at approximately 37°C and studied on the same day.
Individual adult worms were added to wells containing 75 μL of RPMI-1640 medium, penicillin (500 U/mL), streptomycin (500 μg/mL) plus 1% v/v final concentration of dimethylsulfoxide (DMSO) or compound dissolved in DMSO. Plates were incubated at 37°C, 5% CO2. Motility was determined after 24 hours.
An automated system was used to quantify worm movement. An earlier version of this system has been previously described. Two hundred frame movies of the whole plate were recorded at 10 frames per second and then motility determined by an algorithm based on thresholding pixel variance over time. For the hit confirmation and expansion assays, library material was used at a final concentration of 100μM. Dose-response curves were calculated with the four factor log-logistic model using the R package drc or using GraphPad Prism.

Data set [4] has as its system unembryonated T. muris eggs. The data set can be described thus: Embryonation assay. More on the design: species or system Trichuris muris. The settings on record: for Percentage of unembryonated eggs compared to the DMSO control: duration of embryonation (56–60 days). Here is the method:
One hundred unembryonated eggs were treated with water, 1% v/v DMSO in water or test compounds at a final concentration of 100 μM (unless stated) with 1% v/v DMSO, in the dark at 26°C, either for 56 days or for shorter periods as described. Images were collected on an Olympus BX63 upright microscope using a 60x / 1.42 PlanApo N (Oil) objective and captured and white-balanced using an DP80 camera (Olympus) in monochrome mode through CellSens Dimension v1.16 (Olympus). Images were then processed and analysed using the image analysis platform Fiji.

Data set [5] relates to C. elegans N2. The data set can be described thus: C. elegans growth assay. More on the design: species or system Caenorhabditis elegans. The settings on record: synchronised L1, 5 days at 20°C, EC50 estimate ± standard error. Here is the method:
A mixed-stage C. elegans N2 population was obtained by liquid culture (20°C) according to standard methods. It was then bleached to obtain an egg population with 1.5 mL 4M NaOH, 2.4 mL NaOCl, 2.1 mL water, washed three times, and allowed to hatch in 50 mL S-basal buffer at 20°C overnight to obtain a synchronised L1 population. For the growth assay, 49 μL of S-complete buffer and 1 μL of DMSO or DMSO plus compound were added to each well of 96-well plates. 50 μL of a worm suspension (approximately 20 synchronised L1 worms, 1% w/v E. coli HB101 in S-complete buffer) were then added to each well. Plates were incubated at 20°C before imaging 5 days later. Worm movement was stimulated by inserting and removing a 96-well PCR plate into/from the wells of the assay plate, and then whole plate 200 frame movies were recorded at 30 frames per second. Growth was quantified as a correlate of movement using the same automated system described earlier, which estimates movement for each well by categorising pixels as imaging movement if their variance is greater the mean plus one standard deviation of the variances of all the pixels on the plate.

Data set [6] relates to CMT-93 rectal epithelial cells. The data set can be described thus: WST-8 cytotoxicity assay. The format is cell-based. The note with it: Mus musculus, CMT93; CMT-93 cells, 72 hours, max 100 μM, n = 8, 95% confidence interval in parentheses. Here is the method: (§1) The mouse rectal epithelial cell line CMT-93 (LGC Promochem, Teddington, United Kingdom) was used for these studies. The WST-8 and neutral red cytotoxicity assays were performed as described. Briefly, cells were cultured with test compounds, chlorpromazine positive control or DMSO alone (final compound concentrations of 0 to 100 μM) for 72 hours. The WST-8 assay was then carried out using the Cell Counting Kit– 8 (Sigma Aldrich # 96992) with an incubation time of 2 hours. This time was chosen according to the manufacturer’s instructions and was such that the absorbance of the WST-8 formazan dye was within the linear range of the microplate reader. Following this assay, the medium was exchanged, and the ability of the cells to take up the dye neutral red (concentration 33 μg/mL, incubation time 2 hours) was determined using a microplate reader (absorbance at 540 nm). Results were analysed using GraphPad Prism and fitted using a log-logistic model.

In data set [7] the test system is CMT-93 rectal epithelial cells. The data set can be described thus: Neutral red cytotoxicity assay. Format: cell-based. The note with it: Mus musculus, CMT93; CMT-93 cells, 72 hours, max 100 μM, n = 8, 95% confidence interval in parentheses. Here is the method: as §1
For data set [8], the system named is embryonated T. muris eggs. The data set can be described thus: In vivo hatching and infection establishment of treated eggs in SCID mice. Also on record: species or system Trichuris muris in SCID mice. The settings on record: eggs soaked 14 days in 100 μM; SCID mice given 40 eggs; L2 larvae counted day 15 post infection; batch normalised to DMSO. Here is the method: (§2) 100 infective embryonated eggs were incubated in deionised water with 1% v/v DMSO or test compounds at a final concentration of 100 μM in 1% v/v DMSO for 14 days at room temperature in the dark. Eggs were then washed and resuspended in deionised water. For in vitro hatching assays 100 eggs were added to 1 mL of E. coli bacterial culture grown in LB broth overnight at 37°C shaking at 200 rpm. Egg-bacterial cultures were incubated for 24 hours at 37°C, 5% CO2 and hatching determined following blinding by visual examination under a dissecting microscope. For in vivo hatching assays, 40 eggs were counted under a dissecting microscope and given to a SCID mouse in 200 μL water. At day 15 post-infection mice were culled and the number of L2 larvae present in the caecae and colon enumerated in a blinded manner under a dissecting microscope.
The experiment was conducted in two ‘experimental batches’. For batch one there were 5 mice in each of the DMSO and OX02926 groups. For batch two there were 9 mice in each of the DMSO and OX02926 groups. The raw data (number of worms that established infection in each mouse) are shown separated by batch and treatment in the S1 Fig.
To analyse the data we used a two-way ANOVA (worm number ~ treatment * batch). […] There was no significant interaction between treatment and batch [F(1,24) = 0.296, P = 0.59153]. […]

Data set [9] concerns embryonated T. muris eggs. Put plainly: In vitro hatching of compound-soaked embryonated eggs in E. coli culture. The note with it: eggs soaked 14 days at 100 μM, then 24 hours in E. coli culture at 37°C. More on the design: species or system Trichuris muris. The method, then: as §2
Details of data set [10]: method as in PMID 25370471, PMID 26787751. The settings on record: solid tumors; cited from earlier work.
[11] abbreviates: shown for comparison in Table 1, read-out: Adult Trichuris paralysis assay EC50.

Usually EC50 stands for the midpoint of the concentration-response curve. On to `CCCSc1ccc2nc(NC(=O)OC)[nH]c2c1` [Albendazole], for which, in the data set with T. trichiura, the “Cure rate, T. trichiura infection” value was 28% and the “Cure rate against whipworm” value is listed as “less than 40%”. Besides, the concentration giving a half-maximal response (EC50) in the data set with ex vivo T. muris adults [1] was greater than 800 µM.

On to `c1ccc([C@H]2CN3CCSC3=N2)cc1` [Levamisole], for which the values for the concentration for a half-maximal effect (EC50) with ex vivo T. muris adults [1] and with C. elegans N2 [2] were 8 ± 3 µM and 5 ± 1 µM, respectively.

As to `COC(=O)Nc1nc2ccc(C(=O)c3ccccc3)cc2[nH]1` [Mebendazole], in the data set on T. trichiura, the “Cure rate, T. trichiura infection” value is on record as 36% and the “Cure rate against whipworm” value is listed as “less than 40%”. The 50% effective concentration (EC50) in the data set on ex vivo T. muris adults [1] is greater than 600 µM. In addition, the half-maximal effective concentration (EC50) with C. elegans N2 [2] was 1.1 ± 0.2 µM.

On to `CNc1nc(NCCOc2ccccc2)c2sccc2n1` [OX02925, N^2-Methyl-N^4-(2-phenoxyethyl)thieno[3,2-d]pyrimidine-2,4-diamine], for which the EC50 with ex vivo T. muris adults [3] (setting [11]) is 47 µM; in the data set on C. elegans N2 [5] (Caenorhabditis elegans, 120 h), 82 ± 9 µM; in data set [6], 75 µM; in data set [7], 29 µM. Moreover, in the data set with ex vivo T. muris adults [3], the “Activity in hit confirmation and expansion motility screen” value (“Activity” below) was “active”. The “Percentage of unembryonated eggs compared to the DMSO control” value in [4] (100 μM, 26°C) is listed as “significant increase”.

As a reminder, the melting point is the temperature, or range, at which the solid turns liquid. Compound `COCCNc1nc(NCCOc2ccccc2Cl)c2sccc2n1` [OX02926, N^4-(2-(2-Chlorophenoxy)ethyl)-N^2-(2-methoxyethyl)thieno[3,2-d]pyrimidine-2,4-diamine] showed a melting point of 69 to 97 °C. The concentration for a half-maximal effect (EC50) in the data set with ex vivo T. muris adults [3] (equivalent of 27μM, read-out: EC50 adult whipworm motility assay, mass equivalent) was determined as 10.2 µg/mL. Besides, the 50% effective concentration (EC50) in the data set with ex vivo T. muris adults [3] (setting [11]) worked out at 27 µM. The “Activity” value in the data set on ex vivo T. muris adults [3] is listed as “confirmed this activity”. Besides, in data set [8], the “Reduction of the burden of worms in vivo” value is roughly 40%. The 50% effective concentration (EC50) in the data set with C. elegans N2 [5] (Caenorhabditis elegans, 120 h) was 82 ± 37 µM. The EC50 with C. elegans N2 [5] is 87 ± 37 µM. Also, the EC50 in data set [6] came to 43 µM. In addition, the EC50 in [7] came to 21 µM. The “In vitro hatching of treated embryonated eggs compared to DMSO control” value in [9] was “significant decrease”.

Turning to `Cc1ccc(CN2C(=O)COCc3cc(-c4ccncc4)ccc32)cc1` [OX02983], the EC50 in the data set with ex vivo T. muris adults [1] is 50 ± 13 µM.

For `COc1ccccc1CNc1nc(NCCOc2ccccc2Cl)c2sccc2n1` [OX03143, N^4-(2-(2-chlorophenoxy)ethyl)-N^2-(2-methoxybenzyl)thieno[3,2-d]pyrimidine-2,4-diamine], the concentration for a half-maximal effect (EC50) in the data set with ex vivo T. muris adults [3] (setting [11]) is greater than 80 µM; with C. elegans N2 [5] (Caenorhabditis elegans, 120 h), 7 ± 1 µM; in data set [6], 15 µM; in data set [7], 5 µM. Further, the “Activity” value with ex vivo T. muris adults [3] is listed as “active”.

In the case of `CNc1nc(NCCOc2ccccc2Cl)c2sccc2n1` [OX03147, N^4-(2-(2-chlorophenoxy)ethyl)-N^2-methylthieno[3,2-d]pyrimidine-2,4-diamine], the EC50 in the data set on ex vivo T. muris adults [3] (setting [11]) was 44 µM; in the data set on C. elegans N2 [5] (Caenorhabditis elegans, 120 h), 11 ± 2 µM; in data set [6], 37 µM; in [7], 21 µM. For the same compound, the “Activity” value with ex vivo T. muris adults [3] is on record as “active”. Also, the “Larval length after shortened exposure” value in data set [4] (100 μM, 26°C, 2–4 week and 4–6 week groups) was “not affected”; in data set [4] (100 μM, 26°C, soaking weeks 0–3, P = 0.0076 vs DMSO), “clear larval stunting”. The “Percentage of unembryonated eggs compared to the DMSO control” value in [4] (100 μM, 26°C) is reported as “significant increase”. The “Proportion of unembryonated eggs after shortened exposure” value in data set [4] (100 μM, 26°C, weeks 0–2, 0–3, 2–4 or 4–6 of embryonation) is reported as “no increase”. The “Morphology of L1 larvae within the egg after shortened exposure” value in data set [4] (100 μM, 26°C, weeks 0–3, 2–4 or 4–6) was “clear morphological alterations”. Besides, the “Drug dose at which increased number of unembryonated eggs was detected” value in data set [4] (concentration response, both 26°C and room temperature, 56 days) is 100 µM. For the same compound, the “Effect on egg morphology / larval length at low concentration” value in data set [4] (concentrations as low as 1 μM, 26°C, 56 days) was “significant larval stunting”.

As to `CS(=O)(=O)N1CCN(Cc2cc3nc(-c4cccc5[nH]ncc45)nc(N4CCOCC4)c3s2)CC1` [Pictilisib, pictilisib], in data set [10], the “Tolerability in Phase I trials” value was “tolerated”.

With `Cc1c(CN2CCN(C(=O)[C@H](C)O)CC2)sc2c(N3CCOCC3)nc(-c3cnc(N)nc3)nc12` [apitolisib], in data set [10], the “Tolerability in Phase I trials” value is given as “tolerated”.
